Laboratory results taken from US6764829B2, “Nucleoside hydrolase and nucleoside phosphorylase detection kits, dipsticks and substrates” (Albert Einstein College of Medicine of Yeshiva University, priority 1996, dated 2004).
Read-outs that look alike come from different tables or passages of the source.

Columns and labels:
AMP nucleosidase [1] = molecular target: T1, AMP nucleosidase (Escherichia coli, UniProt P0AE12); conditions: purine substrate; cited from earlier work
IAG-nucleoside hydrolase [2] = molecular target: T2, IAG-nucleoside hydrolase (Trypanosoma brucei, UniProt Q57ZL6); conditions: purine substrate; cited from earlier work
T2 sequence (Q57ZL6 1-327): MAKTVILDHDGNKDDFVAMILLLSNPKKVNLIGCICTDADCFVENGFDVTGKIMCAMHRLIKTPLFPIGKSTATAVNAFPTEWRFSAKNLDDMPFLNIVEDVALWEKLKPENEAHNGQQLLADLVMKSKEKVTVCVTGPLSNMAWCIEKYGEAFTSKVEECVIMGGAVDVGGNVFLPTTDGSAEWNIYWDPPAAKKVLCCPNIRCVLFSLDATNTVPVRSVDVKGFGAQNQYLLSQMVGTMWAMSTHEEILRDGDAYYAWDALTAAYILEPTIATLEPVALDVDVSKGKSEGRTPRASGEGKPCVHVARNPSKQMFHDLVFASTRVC

[3] = molecular target: T3, Purine nucleoside phosphorylase (Bos taurus, UniProt P55859); parameters: bovine spleen enzymes tested; from tissue; host or cells: bovine spleen; conditions: purine substrate; cited from earlier work
T3 sequence (P55859 1-289): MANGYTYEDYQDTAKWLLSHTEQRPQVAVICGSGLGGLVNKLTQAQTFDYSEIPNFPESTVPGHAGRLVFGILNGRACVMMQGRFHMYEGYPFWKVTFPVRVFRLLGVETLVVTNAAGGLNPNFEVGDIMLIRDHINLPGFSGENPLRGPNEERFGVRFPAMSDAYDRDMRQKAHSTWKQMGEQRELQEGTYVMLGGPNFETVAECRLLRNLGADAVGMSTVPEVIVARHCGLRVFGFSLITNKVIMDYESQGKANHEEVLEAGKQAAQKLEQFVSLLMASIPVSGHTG

IU-nucleoside hydrolase [4] = molecular target: T4, IU-nucleoside hydrolase (Crithidia fasciculata, UniProt Q27546); conditions: purine substrate; cited from earlier work
T4 sequence (Q27546 1-315): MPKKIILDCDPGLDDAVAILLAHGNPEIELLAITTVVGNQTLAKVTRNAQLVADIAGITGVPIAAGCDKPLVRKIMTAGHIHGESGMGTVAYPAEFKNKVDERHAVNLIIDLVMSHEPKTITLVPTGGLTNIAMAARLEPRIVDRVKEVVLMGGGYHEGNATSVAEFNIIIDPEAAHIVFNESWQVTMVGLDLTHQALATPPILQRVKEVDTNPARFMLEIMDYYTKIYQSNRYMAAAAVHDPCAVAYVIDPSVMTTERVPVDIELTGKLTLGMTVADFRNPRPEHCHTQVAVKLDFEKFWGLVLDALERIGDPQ

IAG-nucleoside hydrolase [5] = molecular target: T2, IAG-nucleoside hydrolase; test: Comparison of β-D-ribofuranoside substrates with IAG-nucleoside hydrolase (Table 3); type: biochemical; conditions: for IAG NH rate: at 200 μM substrate
Description: (§1) The enzymes used were highly purified samples from Crithidia fasciculata (IU-nucleoside hydrolase) and Trypanosoma brucei brucei (IAG-nucleoside hydrolase), available as stock solutions of approximately 20 mg protein/mL.
(§2) Each reaction was conducted in a quartz cuvette with a 1 cm path length, placed in the observation chamber of a UV spectrophotometer, and in a total reaction volume of 600 μL. The temperature was adjusted by use of a circulating water bath, set so that the cuvette temperature equilibrated to 30° C. in about 5 minutes.
(§3) The β-D-ribofuranoside substrates were dissolved in aqueous buffer: 50 mM CHES for reactions at pH 10, 50 mM HEPES for reactions at pH 8. […] For the remaining reactions catalysed by IAG hydrolase, a single substrate concentration of between 100 and 300 μM was used.
(§4) The absorbance of each reaction mixture was monitored at or near the absorption maximum for the phenolic aglycon (as shown in Table 3). Monitoring began 5-10 minutes before the enzyme was added to determine if the substrate was stable under the reaction conditions.
(§5) Data were fitted to the Michaelis-Menton equation using kaleidagraph, and the resulting kinetic parameters along with other relevant data are summarized in Table 3.

IU-nucleoside hydrolase [6] = molecular target: T4, IU-nucleoside hydrolase; test: Comparison of β-D-ribofuranoside substrates with IU-nucleoside hydrolase (Table 3); type: biochemical
Description: as §1, §2, §3, §4, §5

[7] = Stability of substrate under the reaction conditions before enzyme was added; type: physicochemical; conditions: pH 10, 30° C., monitored 5-10 minutes before the enzyme was added
Description: as §4

[8] = molecular target: T3, Purine nucleoside phosphorylase; test: Kinetic parameters (phosphorolysis) with nitrophenylriboside and purine substrate (Table 1); type: biochemical, bovine; parameters: The E. coli and bovine spleen enzymes tested; from tissue; host or cells: bovine spleen
Excerpt: (§6) In this Example kinetic parameters for different enzymes were compared using nitrophenylriboside or a purine substrate. […] The E. coli and bovine spleen enzymes tested were ineffective in hydrolysing the substrate. The striking ability of one of the protozoan parasite enzymes to hydrolyse the substrate provides the basis for an assay for the protozoan parasites (see Example 22).

GI-nucleoside hydrolase [9] = test: Kinetic parameters with nitrophenylriboside and purine substrate (Table 1); type: biochemical, Crithidia fasciculata
Excerpt: as §6

[10] = test system: Giardia intestinalis (Portland 1 strain); test: Hydrolysis of substrates by Giardia intestinalis supernatants; type: biochemical; conditions: 0.24 mM substrate, 50 mM HEPES pH 8
Description: Giardia intestinalis (Portland 1 strain) was grown for 2 days in TYI-33 medium supplemented with 5 mM arginine, harvested and washed. A suspension containing 2.91×10^8 cells of Giardia intestinalis in 1 mL of aqueous HEPES buffer (40 mM. pH 7) was mixed with 1 mL of aqueous HEPES buffer (40 mM, pH 7) containing 0.1 mM protease inhibitor E-64 and sonicated (Branson sonicator, duty cycle 40, output 2.5), for 2-3 min in ice. The suspension was then centrifuged in a Beckman microfuge for 10 mins at 4° C., and the supernatant decanted.
A second suspension of 2.91×10^8 cells of Giardia intestinalis in 1 mL of aqueous HEPES buffer (40 mM, pH 7) was mixed with 1 mL of 0.5% aqueous Triton X-100, left at 4° C. overnight, and the supernatant was decanted.
Aliquots (between 2 and 100 μL) of each of these supernatants were made up to a volume of 1 mL of water containing 50 mM HEPES buffer at pH 8, 0.24 mM 4-nitrophenyl β-D-ribofuranoside or 4-pyridyl β-D-ribofuranoside. The release of the aglycon was monitored by absorption spectrometry at 400 nm or 253 nm, respectively.
Protein was determined by Lowry method (ie Folin reaction).

[11] = test system: blood from mice infected with Trypanosoma cruzi; test: Rate of hydrolysis of nitrophenyl riboside with control or infected mouse blood; type: biochemical; conditions: for rate of hydrolysis: 0.24 mM substrate, 50 mM HEPES pH 8.0, 30° C., 400 nm
Description: The utility of nitrophenylriboside as a substrate for detecting protozoan infections using the presence of nucleoside hydrolases was tested using blood from mice infected with Trypanosoma cruzi, the causitive agent of Chagas disease (Table 2). […] The values obtained from the assay from the infected mice were strikingly elevated above those of the uninfected controls.

AMP nucleosidase [12] = molecular target: T1, AMP nucleosidase; test: Kinetic parameters with nitrophenylriboside 5-phosphate and purine substrate (Table 1); type: biochemical, E coli; conditions: summary of Table 1
Excerpt: as §6

T. vaginalis = test: Hydrolysis of substrates by T. vaginalis extract; type: biochemical; conditions: Triton X-100 extract; determined as in Example 24
Description: T. vaginalis was grown for 2 days in TYM medium, harvested, and washed. […] The ability of the extract to hydrolyse substrates was determined as in Example 24. For 4-nitrophenyl β-D-ribofuranoside, the activity was 165 nmoles.min^−1 per 10^8 cells, corresponding to an activity for the enzyme of 9 nmoles.min^−1.(mg protein)^−1. For 4-pyridyl β-D-ribofuranoside, the activity was 74 nmoles.min^−1 per […] corresponding to an activity for the enzyme of 4 nmoles.min^−1.(mg protein)^−1.

IU-nucleoside hydrolase [13] = molecular target: T4, IU-nucleoside hydrolase; test: Kinetic parameters with nitrophenylriboside and purine substrate (Table 1); type: biochemical
Excerpt: as §6

IAG-nucleoside hydrolase [14] = molecular target: T2, IAG-nucleoside hydrolase; test: as above; type: biochemical
Excerpt: as §6

GI-nucleoside hydrolase [15] = conditions: purine substrate; cited from earlier work
[16] = listed as 2-(5-nitropyridyl) riboside
[17] = kcat/Km for nitrophenylriboside to that for inosine
[18] = nitrophenylriboside as substrate, pH 8.0 in 50 mM HEPES, 30° C.

T1 sequence (P0AE12 whole entry): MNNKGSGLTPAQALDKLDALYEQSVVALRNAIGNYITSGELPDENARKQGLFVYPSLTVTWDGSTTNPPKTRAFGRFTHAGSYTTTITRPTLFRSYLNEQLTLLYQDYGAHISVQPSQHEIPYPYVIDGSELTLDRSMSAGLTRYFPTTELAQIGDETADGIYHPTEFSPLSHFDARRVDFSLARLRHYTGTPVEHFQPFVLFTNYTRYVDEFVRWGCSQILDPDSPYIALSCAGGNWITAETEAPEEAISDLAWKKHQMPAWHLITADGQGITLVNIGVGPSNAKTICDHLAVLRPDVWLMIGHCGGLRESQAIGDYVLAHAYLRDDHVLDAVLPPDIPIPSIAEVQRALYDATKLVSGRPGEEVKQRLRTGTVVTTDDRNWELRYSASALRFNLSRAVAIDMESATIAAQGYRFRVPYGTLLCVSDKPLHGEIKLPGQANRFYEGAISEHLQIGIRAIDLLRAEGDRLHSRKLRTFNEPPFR

In the case of `Nc1ncnc2c1ncn2[C@@H]1O[C@H](COP(=O)(O)O)[C@@H](O)[C@H]1O` [AMP], the Km (AMP nucleosidase [1]) is listed as 150 µM and the kcat (AMP nucleosidase [1]) is listed as 27 s⁻¹.
In the case of `OC[C@H]1O[C@@H](n2cnc3c(O)ncnc32)[C@H](O)[C@@H]1O` [inosine], the Km (IAG-nucleoside hydrolase [2]) is given as 18 µM, the kcat (IAG-nucleoside hydrolase [2]) is given as 34 s⁻¹ and the Km [3] is given as 19 µM. The kcat [3] was 12 s⁻¹ and the kcat (IU-nucleoside hydrolase [4]) was 28 s⁻¹.
With `O=[N+]([O-])c1ccc(O[C@@H]2O[C@H](CO)[C@@H](O)[C@H]2O)nc1` [Example 13, 2-(5-nitropyridyl) β-D-ribofuranoside] the “substrate quality in words” value (IAG-nucleoside hydrolase [5]) was “good substrates”, the “IAG NH rate” value (IAG-nucleoside hydrolase [5]; pH 8.0) was >100 min⁻¹ and the “IAG NH rate” value (IAG-nucleoside hydrolase [5]; pH 10.0) was >100 min⁻¹. For the same compound, the “substrate quality in words” value (IAG-nucleoside hydrolase [5]; [16]) was “substantially greater activity”, the “substrate quality in words” value (IU-nucleoside hydrolase [6]) was “good substrates” and the “IU NH kcat” value (IU-nucleoside hydrolase [6]; At pH 10, 30° C.) was 100 s⁻¹. For the same compound, the Km (IU-nucleoside hydrolase [6]; At pH 10, 30° C., read-out: IU NH Km) was 122 µM, the “substrate quality in words” value (IU-nucleoside hydrolase [6]; [16]) was “lower activity” and the “hydrolysis in the absence of enzyme” value [7] was “hydrolysis observed in the absence of enzyme”.
In the case of `O=[N+]([O-])c1ccc(O[C@@H]2O[C@H](CO)[C@@H](O)[C@H]2O)cc1` [Example 1, p-nitrophenyl β-D-ribofuranoside], the “IAG NH rate” value (IAG-nucleoside hydrolase [5]; pH 10.0) is reported as 0.05 min⁻¹, the kcat/Km ratio [8, 17] is reported as 1 × 10^−6 and the “substrate quality in words” value ([8]; summary of Table 1) is reported as “ineffective”. For the same compound, the kcat/Km ratio (GI-nucleoside hydrolase [9]; kcat/Km for nitrophenylriboside to that for guanosine) was 4 × 10^−5, the Km (GI-nucleoside hydrolase [9]; [18]) was 468 µM and the kcat (GI-nucleoside hydrolase [9]; [18]) was 0.07 s⁻¹. The “substrate quality in words” value (IU-nucleoside hydrolase [6]) was “good substrates”, the “substrate quality in words” value (IU-nucleoside hydrolase [6]; listed as p-nitrophenylriboside) was “particularly good substrate” and the activity per cells [10] was 470 nmoles.min^−1 per 10^8 cells. For the same compound, the “activity for the enzyme” value ([10]; protein by Lowry method) was 70 nmoles.min^−1.(mg protein)^−1, the “detection of nucleoside hydrolase in words” value ([11]; blood lysate prepared from one microliter of infected blood) was “readily detects the presence of the nucleoside hydrolase” and the rate of hydrolysis ([11]; mouse blood infected, T cruzi var Brazil) was 4.6 ± 0.5 (3) pmol/min/mg. For the same compound, the rate of hydrolysis ([11]; mouse blood infected, T cruzi var Tulahuen) was 3.9 ± 0.5 (4) pmol/min/mg, the rate of hydrolysis ([11]; uninfected control mouse blood) was 0.7 ± 0.8 (11) pmol/min/mg and the “substrate quality in words” value (AMP nucleosidase [12]) was “ineffective”. The “activity for the enzyme” value (T. vaginalis) was 9 nmoles.min^−1.(mg protein)^−1, the activity per cells (T. vaginalis) was 165 nmoles.min^−1 per 10^8 cells and the kcat/Km ratio (IU-nucleoside hydrolase [13]; [17]) was 54. For the same compound, the “substrate quality in words” value (IU-nucleoside hydrolase [13]; summary of Table 1) was “good substrate”, the kcat/Km ratio (IAG-nucleoside hydrolase [14]; [17]) was 8 × 10^−4 and the “substrate quality in words” value (IAG-nucleoside hydrolase [14]; summary of Table 1) was “relatively poor”.
For `Nc1nc2c(ncn2[C@@H]2O[C@H](CO)[C@@H](O)[C@H]2O)c(=O)[nH]1` [guanosine], the Km (GI-nucleoside hydrolase [15]) is listed as 77 µM and the kcat (GI-nucleoside hydrolase [15]) is listed as 231 s⁻¹.
